Results published in patent publication US6537797B1, “Compositions and methods useful in bioremediation of polychlorinated biphenyls” (Indiana University, Advanced Research and Technology …, priority 1999, dated 2003).

How the values were obtained:
Assay type in all cases: cell-based
[1] = tested on: bacterial strain SK-3; test: Growth substrate tests in liquid medium; conditions: initial concentration 100 parts per million, except chlorobenzoate 2-3 millimolar
Protocol: (§1) The ability of the four isolated strains to grow on selected polychlorobiphenyls as a sole carbon source was assessed.
(§2) (All tests were conducted in a liquid medium. The initial concentration of the organic substrate was 100 parts per million, except chlorobenzoate, which was 2-3 millimolar).

[2] = tested on: bacterial strain SK-4; test: Growth substrate tests in liquid medium; conditions: initial concentration 100 parts per million, except chlorobenzoate 2-3 millimolar
Protocol: as §1, §2

[3] = tested on: bacterial strain SK-1; test: Growth substrate tests in liquid medium; conditions: initial concentration 100 parts per million, except chlorobenzoate 2-3 millimolar
Protocol: as §1, §2

[4] = tested on: bacterial strain SK-2; test: Growth substrate tests in liquid medium; conditions: initial concentration 100 parts per million, except chlorobenzoate 2-3 millimolar
Protocol: as §1, §2

[5] = tested on: consortia of bacterial strains from PCB-contaminated tertiary lagoon sludge; test: Degradation of selected PCB congeners in aerobic enrichment cultures; conditions: 100 ppm (w/v) mixture of five PCB congeners, with or without biphenyl cosubstrate; hexane extraction 45 days after inoculation, GC
Source text: A consortia of bacterial strains was isolated from tertiary lagoon sludge that was contaminated with PCBs for over twenty five years. The sludge was collected from the Winston-Thomas sewage treatment plant in Bloomington, Ind. PCB-degrading strains were enriched using a minimal medium comprising a 100 ppm (w/v) mixture of the following five PCB congeners as the carbon source: 2,3-dichlorobiphenyl (DCBP), 2,4,4′-trichlorobiphenyl (TCBP), 2,4,6-trichlorobiphenyl, 2,2′,5,5′-tetrachlorobiphenyl, and 2,2′,4,4′,5,5′-hexachlorobiphenyl. Biphenyl was also added to the medium in some samples as an additional carbon source to stimulate the cometabolism of biphenyl and the PCBs. About 30-35 milliliters of the medium was inoculated with 5-10 milliliters of PCB-contaminated sludge and incubated in 160-mL serum bottles sealed with Teflon-coated stoppers. The bottles were incubated horizontally on a shaker table at room temperature. The headspace in the bottles was purged with air once a week to maintain aerobic conditions. Every 4-6 weeks, 10% of the culture was transferred to fresh medium. […] The concentrations of the PCB congeners were determined by extracting bottles with hexane 45 days after inoculation (a single bottle extraction), and analyzing hexane extracts by gas chromatography using a DB-5 column (J&W Scientific, Folsum, Calif.) and an electron capture detector. The results from this analysis are depicted in FIG. 1.

[6] = tested on: bacterial strain SK-3; test: Characterization of SK-3: growth on and degradation of chlorobiphenyls and chlorobenzoates; conditions: for Chloride and chlorobenzoic acid (CBA) formed on degradation by SK-3: 88 hours, 23° C., aerobic, shaker table
Protocol: (§3) The concentrations of chlorobenzoates and dichlorobiphenyls were assessed after hexane extraction of bottles using gas chromatography analysis of the extracts with an electron capture detector. Chlorobenzoates were analyzed using standard columns after derivitization with pentafluorobenzyl bromide. Dichlorobiphenyls were analyzed using a DB-5 column (J&W Scientific, Fulsom, Calif.).
The results from this experiment are depicted in FIG. 5.
The growth of SK-3 on 4-chlorobiphenyl (4-CB) was compared with growth on its non-chlorinated form, biphenyl. […] The results from this experiment are depicted in FIG. 6. The concentration of chloride ion was determined using ion chromatography on a standard Dionex ion chromatography column. The concentration of 4-CB was assessed after hexane extraction of bottles by analyzing the hexane extracts using gas chromatography on a DB-5 column (J&W Scientific, Fulsom, Calif.) and an electron capture detector.
The growth of SK-3 on chlorobenzoates was assessed. […] The results from this experiment are depicted in FIG. 7.
The degradation of three different monochlorobiphenyls, (2-CB, 3-CB, and 4-CB) by SK-3 was assessed at 23° C. under aerobic conditions on a shaker table. After incubation of SK-3 with the selected monochlorobiphenyl for 88 hours, the concentrations of chloride and the corresponding chlorobenzoic acids (CBA) was assessed as described herein. The results from this experiment are depicted in FIG. 8.
The growth of SK-3 on dichloro-biphenyls was also assessed. […] The results of this experiment are depicted in FIG. 9.

[7] = tested on: bacterial strain SK-1; test: Growth of SK-1 on 2,3-DCBP as sole carbon source and its degradation
Protocol: Growth of bacterial strains SK-1 and SK-2 on 2,3-DCBP and 3,4-DCBP, respectively, as a sole carbon source was determined using direct counting and an acridine orange staining method. This method involves filtering 0.1 milliliters of culture through a 0.45 micron filter, staining the cells on the filter using a 0.01% acridine orange solution for 3 to 5 minutes, and counting cells on the filter using an epifluorescent microscope at a 1000′ magnification. SK-1+ contained 2,3-dichlorobiphenyl; SK-2+ contained 3,4-dichlorobiphenyl. Control bottles in each case were identical to experimental bottles in that they were inoculated with the cultures but they lacked the appropriate congener. The initial concentration of PCBs was 500 ppm (w/v). The cell numbers of the two isolates increased by 1.5 orders of magnitude in the presence of the DCBPs used as a growth substrate. The degradation of 2,3-DCBP by SK-1 and production of 2,3-dichlorobenzoate is depicted in FIG. 3. The degradation of 3,4-DCBP by SK-2 and production of 3,4-dichlorobenzoate is depicted in FIG. 4.
as §3
The data shown in FIGS. 2, 3 and 4 illustrates the nearly complete disappearance of both 2,3-DCBP (0.38 mM initial concentration, FIG. 3) and 3,4-DCBP (0.3 mM initial concentration, FIG. 4) within 10 days of incubation. Duplicate bottles were used and error bars of the pictures represent a standard deviation. Controls contained DCBPs but lacked inoculum. DCBPs were supplied in the bottles using the non-biodegradable carrier heptamethylnonane (HMN).

[8] = tested on: bacterial strain SK-4; test: Characterization of SK-4: growth on and degradation of 2,2′-DCBP and 2,4′-DCBP; conditions: 1.5×10^7 cells per milliliter
Protocol: The same methods for determining concentrations of analytes and for the incubation of the bacterial strain with growth substrate described herein for the previous analyses were used in the experiments to characterize SK-4. The concentration of SK-4 cells in the experiments was 1.5×10^7 cells per milliliter and the concentration of 2,2′-DCBP or 2,4′-DCBP was 100 milligrams per liter. […] Ortho-substituted congeners are common degradation products of anaerobic reductive dechlorination of more highly chlorinated PCBs (PCBs comprising more than two chlorine atoms) by anaerobic bacteria.
2,2′-DCBP was supplied at a concentration of 100 milligrams per liter dissolved in heptamethyl nonane (HMN), a non-biodegradable PCB solvent. Controls contained HMN but lacked 2,2′-DCBP.

[9] = substrate in heptamethyl nonane

Row | Compound | Growth of SK-3 on the substrate as sole carbon source [1] | Growth of SK-4 on the substrate as sole carbon source [2] | Growth of SK-1 on the substrate as sole carbon source [3] | Growth of SK-2 on the substrate as sole carbon source [4] | other results
1 | Clc1cccc(-c2cccc(Cl)c2)c1 [3,3′-DCBP] | No | No |  |  | 
2 | O=C(O)CCl [Chloroacetate] | Yes | Yes | Yes | No | 
3 | Clc1cc(Cl)c(-c2ccccc2)c(Cl)c1 [2,4,6-TCBP, 2,4,6-trichlorobiphenyl] |  |  |  |  | Degradation of PCB congener in aerobic enrichment cultures [5]: degraded only in the bottles which contained biphenyl as a cosubstrate
4 | 2,3,4-trichlorobenzoate | No |  | No | No | 
5 | Clc1ccc(Cl)c(-c2ccccc2Cl)c1 [2,2′,5-TCBP] |  | No |  |  | 
6 | O=C(O)c1ccccc1 [Benzoate] | Yes | Yes | Yes | Yes | 
7 | Clc1ccccc1-c1cccc(Cl)c1Cl [2,2′,3-TCBP] | No | No | No | No | 
8 | Oc1ccccc1 [Phenol] | Yes | Yes | Yes | No | 
9 | Clc1cc(Cl)cc(-c2ccccc2)c1 [3,5-DCBP] | No | No | No | No | 
10 | Clc1ccccc1-c1ccccc1 [2-chlorobiphenyl] | Yes | Yes | Yes | Yes | Chloride and chlorobenzoic acid (CBA) formed on degradation by SK-3 [6]: partial release of chloride and production of 2-CBA
11 | c1ccc(-c2ccccc2)cc1 [Biphenyl] | Yes | Yes | Yes | Yes | 
12 | O=C(O)c1cccc(Cl)c1Cl [2,3-dichlorobenzoate] | No | No | No | No | Production of chlorobenzoate from 2,3-DCBP by SK-1 ([7]; 0.38 mM 2,3-DCBP initial concentration): almost stoichiometric
13 | Clc1ccc(-c2ccccc2Cl)cc1Cl [2′,3,4-TCBP] | No | No | No | No | 
14 | Clc1ccc(Cl)c(-c2ccccc2)c1 [2,5-DCBP] | No | No | Likely | No | 
15 | Clc1ccc(-c2ccccc2)cc1 [4-chlorobiphenyl] | Yes | Yes | Yes | Yes | Chloride and chlorobenzoic acid (CBA) formed on degradation by SK-3 [6]: did not generate 4-CBA; Release of chloride during degradation by SK-3 ([6]; chloride by ion chromatography): stoichiometric production of chloride
16 | Clc1ccc(-c2ccc(Cl)cc2)cc1 [4,4′-DCBP] | No | No |  |  | 
17 | Clc1ccc(-c2ccc(Cl)cc2Cl)cc1 [2,4,4′-TCBP, 2,4,4′-trichlorobiphenyl] |  |  |  |  | Degradation of PCB congener in aerobic enrichment cultures [5]: degraded only in the bottles which contained biphenyl as a cosubstrate
18 | O=C(O)c1ccccc1Cl [2-chlorobenzoate] | No | No | No | No | 
19 | c1ccc2ccccc2c1 [Naphthalene] | No | No | No | No | 
20 | O=C(O)c1cccc(Cl)c1 [3-chlorobenzoate] | No | No | No | No | 
21 | Clc1cccc(-c2ccccc2)c1 [3-chlorobiphenyl] | Yes | Yes | Yes | Yes | Chloride and chlorobenzoic acid (CBA) formed on degradation by SK-3 [6]: transformed 3-CB to 3-CBA without producing chloride
22 | Clc1ccccc1-c1ccccc1Cl [2,2′-DCBP, 2,2′-dichlorobiphenyl] | No | exhibited growth and Yes | No | No | Growth of SK-4 on the substrate as sole carbon source ([8]; 100 milligrams per liter): growth; Chloride release on degradation by SK-4 [8, 9]: stoichiometric release of chloride; Chlorobenzoate production on degradation by SK-4 [8, 9]: completely transformed into 2-CBA
23 | Clc1cccc(-c2ccccc2)c1Cl [2,3-DCBP, 2,3-dichlorobiphenyl] | No | No | exhibited growth and Yes | No | Degradation of PCB congener in aerobic enrichment cultures [5]: degraded in bottles which lacked a cometabolic substrate; Time to nearly complete disappearance ([7]; SK-1, 0.38 mM initial concentration, supplied in heptamethylnonane): ≤ 10 days; Increase of cell numbers in the presence of the DCBP as growth substrate ([7]; SK-1, initial concentration 500 ppm (w/v), acridine orange direct counting): 1.5 orders of magnitude
